Assays:
[1] = Solubility by filtration and LC/MS; type: physicochemical; details: in water (printed for Compound 74)
Procedure: To determine whether a compound is soluble in a solution, the solution was filtered on […] polytetrafluoroethylene filters (Whatman Inc. Clifton, N.J., USA) and the compound concentration in the filtrate was measured by LC/MS and compared to the expected concentration. If the concentration of the compound in the filtrate was equal +/−15% to the expected concentration, the compound was judged to be soluble in the solution.
The detection of Compound 74 or Compound 50 by LC/MS was carried out using the HPLC system that consisted of a Waters Alliance quaternary gradient HPLC pump (Waters, Milford, Mass., USA) and a ZQ2000 single quadrupole mass spectrometer (Waters, Milford, Mass., USA). The column used was XTerra MS C18: 50×2.1 mm, […] column at 20° C. Samples were injected and separated under the following conditions: The mobile phase “A” consisted of 5 mM ammonium formate, 0.1% formic acid in water and mobile phase “B” consisted of 5 mM ammonium formate, 0.1% formic acid in methanol. A linear gradient was applied as follows: 0 to 1 min, 94% “A” and 6% “B”; 1 to 4 min, 6% to 100% “B”; 4 to 8 min 100% “B”; 8 to 9 min, 100% “B” to 6% “B”; 9 to 12 min, 94% “A” and 6% “B”. […] Compounds were detected at m/z equal to their respective molecular weight plus 1.

[2] = test system: SW480 human colon carcinoma cancer cells; assay: SW480 colon carcinoma xenograft in SCID mice; type: in vivo, CB17 SCID/SCID female mice; details: i.v. 10 mg/kg once a day for five days
Procedure: The resultant mice are a model for a human having colon carcinoma cancer.
The SW480 human colon carcinoma cancer cells were maintained in RPMI supplemented with 10% inactivated fetal bovine serum and 1% penicillin-streptomycin-L-Glutamine, under 5% CO2 at 37° C., and passaged twice a week. The cells were grown at a confluency lower than 70% and then collected with Trypsin (Bio-Whittaker, Md., USA). The cells were then centrifuged and washed twice using phosphate buffered saline solution (PBS) and resuspended in PBS at 1×10^6 cells per 100 μl. Viability was examined by staining with Trypan Blue and only flasks with cell viability of greater than 95% were used for in vivo studies.
(§1) SW480 cells were transplanted subcutaneously into the flank of female CB 17 SCID/SCID mice. Each mouse was inoculated with a suspension of 1×10^6 tumor cells per 100 μL on day zero. The following five treatment groups of ten mice each were used: (a) a negative control group treated with intravenous (i.v.) injection of vehicle, (b) a group treated with i.v. injection of a Compound 50, (c) a group treated with i.v. injection of a Compound 50a, (d) a group treated with i.v. injection of Compound 50b, (e) a group treated with i.v. injection of Compound 74a.
(§2) Treatment started on day twelve after SW480 cells transplantation and Compounds 50, 50a, 50b and 74a were administered i.v. once daily for five consecutive days at a dose of 10, 10, 10 and 50 mg/kg, respectively. Compound 50, 50a and 50b were prepared as a working solution of 1.5 mg/mL in a vehicle solution of 20% Cremaphor EL (Sigma, St. Louis, Miss., USA), and 10% Ethanol. Compound 74a was prepared as a working solution of 5 mg/mL in a vehicle solution of 5% Dextrose (Abbot Laboratories, QC, Canada). The negative control groups were treated with vehicle solution of 20% Cremaphor EL and 10% Ethanol alone.
(§3) The mice were weighed and the tumors measured on day 12 and every 2 to 3 days after treatment commenced. Observations continued for 23 days after initial tumor implantation. The changes in body weight and in the calculated tumor volume were plotted (FIGS. 9 and 10). Statistical analysis was performed using GraphPad Prism (GraphPad Software Inc., San Diego, Calif.). Two-way ANOVA was used to determine how the treatment affected tumor growth over time. Following the two-way ANOVA, post-tests were performed using the Benferroni method to determine the statistical difference between the mean tumor-size of the two groups being compared on every day that the tumors were measured.

[3] = Body weight of SW480 tumor-bearing mice; type: in vivo, CB17 SCID/SCID female mice; details: i.v. once daily for five days; 10 mg/kg (50, 50a, 50b), 50 mg/kg (74a)
Procedure: as §1, §2, §3

SMILES: COc1ccc2c(c1)C1(C)C=CC(=O)C(C)(C)C1=C(O)C2=O (racemic) [Compound 50]
- solubility [1]: < 100 µg/mL
- Tumor growth compared to vehicle [2]: significant reduction (p<0.001)
- Change in body weight [3]: non-significant change in body weight

— patent US7230139B2, “Diterpenoid compounds, compositions thereof and their use as anti-cancer or anti-fungal agents” (priority 2004, dated 2007)
